The results in this text go back to patent US8637531B2, “Pyrido(3,2-d)pyridmidines useful for treating viral infections” (Gilead Sciences, Inc., priority 2006, dated 2014).

The subject of one data set is HCV replicon. Kind of data set: Anti-HCV replicon assay (EC50, luciferase). It counts as cell-based. The settings on record: Hepatitis C virus, 72 h; human hepatoma Huh-7 cell line harbouring a HCV replicon, 3 days incubation, luciferase luminescence. On the procedure: (§1) The anti-HCV activity of the pyrido[3,2-d]pyrimidine derivatives of this invention was tested in a human hepatoma Huh-7 cell line harbouring a HCV replicon. The assay comprised the following steps:
(§2) Step 1: Compound Preparation and Serial Dilution
(§3) • 1. for water soluble pyrido[3,2-d]pyrimidine derivatives, a volume of 500 μL of solution in cell media (DMEM, 10% FBS, P/S, L-Glutamine) was prepared with a concentration being twice the concentration of the starting final serial dilution concentration. A volume of 150 μL of the solution was added to the pre-specified wells in column 1 of a 96-well cell culture plate (PerkinElmer, white plate, cat. #6005181, for EC50 assay; black plate, cat. #6005182 for CC50 assay). The rest of the plate, columns 2-12, was filled with 100 μL of cell media. The plate was then placed on a Precision 2000 Workstation to start the serial dilution. Compounds were diluted three times each step from column 1 to column 10. Column 11 was used as a blank control (no compound added). • 2. for pyrido[3,2-d]pyrimidine derivatives requiring DMSO to dissolve, serial dilution is performed in 50% DMSO in a 384-well plate. A solution containing a compound at 100-fold concentration of the starting final serial dilution concentration was prepared in 50% DMSO and added to the pre-specified wells in column 1 of a polypropylene 384-well plate. The plate was then placed on a Precision 2000 Workstation to start the serial dilution. After the serial dilution, a volume of 2 μL of the solution was transferred from the 384-well plate to a 96-well cell culture plate containing 100 μL of cell media on a Biomek FX Workstation. The DMSO concentration in the final assay condition was 0.5% after cells are added to the plate and the total volume in each well is brought to 200 μL. Step 2: to each well of the serial dilution plate prepared above, 100 μL of cell media containing 6000 suspended Huh-7 HCV replicon cells was added with a Multidrop workstation. The plates were incubated for 3 days at 37° C. with 5% CO2. Step 3: Detection: • a) for the EC50 assay, the media in a 96-well cell culture plate was aspirated with a Biotek EL405 plate-washer. A volume of 200 μL of a solution containing a 1:1 mixture of cell-lysis buffer (Promega, Luciferase Cell Culture Lysis 5× Reagent, cat. #E1531) and luciferase substrate solution (Promega, Luciferase Assay, cat. # E4550) was added to each well of the plate with Multidrop. The plate was incubated for 30 minutes at room temperature before the luminescence signal was measured with a TopCount plate-reader. • b) for the CC50 assay, a volume of 100 μL of pre-mixed CellTiter-Glo (Promega, cat. # G7572) solution is added directly to the cell culture in each well of the plate and the luminescence signal is measured with a TopCount plate-reader after 10 minutes of incubation at room temperature.
Results in table 13 are expressed by the following data: • the 50% effective concentration (EC50), i.e. the concentration that protects 50% of the cell monolayer from virus-induced cytopathic effect, and […]
For orientation: A replicon is a self-replicating genome or part of one, used to study replication in cells.

The nature of data set [1]: CC50 assay in Huh-7 HCV replicon cells (CellTiter-Glo). To be noted: human, 3 days incubation, CellTiter-Glo luminescence. It counts as cell-based. As for the experimental part:
as §1, §2, §3
the 50% cytostatic concentration (CC50), i.e. the concentration that results in 50% inhibition of cell growth.

One may read the melting point as the temperature of the solid-liquid transition. For orientation: EC50 means the midpoint of the concentration-response curve. In general, CC50 refers to the concentration that lowers cell viability or growth by half. Read a high CC50 as better tolerance by the cells.

For `Nc1nc(OCC2CCOC2)c2nc(-c3ccc(F)cc3)ccc2n1` (stereo not drawn) [Example 36, 2-amino-4-(tetrahydro-3-furanmethoxy)-6-(4-fluorophenyl)-pyrido(3,2-d)pyrimidine], the melting point was 219 °C. For the same compound, the concentration giving a half-maximal response (EC50) with HCV replicon is less than 300 nM. In data set [1], this compound gave a half-maximal cytotoxic concentration (CC50) at 3 days of 10000 to 20000 nM.
`COC[C@H](C)Oc1nc(N)nc2ccc(-c3ccc(F)cc3)nc12` [Example 37, 2-amino-4-[(S)-1-methoxy-2-propoxy]-6-(4-fluorophenyl)-pyrido(3,2-d)pyrimidine]: the EC50 with HCV replicon was less than 300 nM. In data set [1], this compound returned a CC50 at 3 days of more than 20000 nM.
The corresponding values for `CC(C)OCCOc1nc(N)nc2ccc(-c3ccc(F)cc3)nc12` [Example 6, 2-amino-4-(2-isopropoxyethoxy)-6-(4-fluorophenyl)pyrido(3,2-d)pyrimidine] are less than 300 nM and more than 20000 nM.
Turning to `Nc1nc(OCC2CCCCO2)c2nc(-c3ccc(F)cc3)ccc2n1` (stereo not drawn) [Example 34, 2-amino-4-(tetrahydropyran-2-methoxy)-6-(4-fluorophenyl)-pyrido(3,2-d)pyrimidine], the melting point came to 202 °C. In the data set on HCV replicon, this compound displayed an EC50 of 300 to 1000 nM. This compound also showed a CC50 at 3 days in data set [1] of 10000 to 20000 nM.
Regarding `Nc1nc(O[C@@H]2CCOC2)c2nc(-c3ccc(F)cc3)ccc2n1` [Example 17, 2-amino-4-[3(R)-tetrahydrofuranyloxy]-6-(4-fluorophenyl)-pyrido(3,2-d) pyrimidine], the EC50 with HCV replicon was less than 300 nM. Besides, the 50% cytotoxic concentration (CC50) at 3 days in data set [1] was more than 20000 nM.
With `COCCOc1nc(N)nc2ccc(-c3ccc(F)cc3)nc12` [Example 23, 6-(4-fluoro-phenyl)-4-(2-methoxy-ethoxy)-pyrido[3,2-d]pyrimidin-2-ylamine], the EC50 in the data set with HCV replicon is less than 300 nM. Besides, in data set [1], the CC50 at 3 days was more than 20000 nM.
The like results for `Nc1nc(OCCN2CCOCC2)c2nc(-c3ccc(F)cc3)ccc2n1` [Example 21, 6-(4-fluoro-phenyl)-4-(2-morpholin-4-yl-ethoxy)-pyrido[3,2-d]pyrimidin-2-ylamine] were, in that order, 300 to 1000 nM and more than 20000 nM.
Turning to `CS(=O)(=O)CCOc1nc(N)nc2ccc(-c3ccc(F)cc3)nc12` [Example 19, 2-amino-4-[2-(methylsulfonyl)ethoxy]-6-(4-fluorophenyl)-pyrido(3,2-d) pyrimidine], the EC50 in the data set with HCV replicon is less than 300 nM. Further, in data set [1], the CC50 at 3 days is more than 20000 nM.
As for `CC#CCCOc1nc(N)nc2ccc(-c3ccc(F)cc3)nc12` [Example 14, 2-amino-4-(3-pentyn-1-oxy)-6-(4-fluorophenyl)pyrido(3,2-d)pyrimidine], the EC50 in the data set with HCV replicon was more than 1000 nM. In data set [1], this compound gave a CC50 at 3 days of more than 20000 nM.
The like results for `Nc1nc(OC2CO[C@H]3OCC[C@@H]23)c2nc(-c3ccc(F)cc3)ccc2n1` (stereo partly drawn) [Example 18, 2-amino-4-[hexahydro-furo(2,3-b)furan-3-oxy]-6-(4-fluorophenyl)-pyrido(3,2-d) pyrimidine] were, in that order, less than 300 nM and more than 20000 nM.
For `COC(C)(C)CCOc1nc(N)nc2ccc(-c3ccc(F)cc3)nc12` [Example 12, 2-amino-4-(3-methyl-3-methoxybutoxy)-6-(4-fluorophenyl)pyrido(3,2-d) pyrimidine], in the data set with HCV replicon, the EC50 was less than 300 nM. The 50% cytotoxic concentration (CC50) at 3 days in data set [1] was more than 20000 nM.
The compound `Nc1nc(OC2CCOCC2)c2nc(-c3ccc(F)cc3)ccc2n1` [Example 33, 2-amino-4-(tetrahydro-2H-pyran-4-oxy)-6-(4-fluorophenyl)-pyrido(3,2-d)pyrimidine] had an EC50 with HCV replicon of less than 300 nM. This compound yielded a half-maximal cytotoxic concentration (CC50) at 3 days in data set [1] of 10000 to 20000 nM.
In the case of `CCCCOCCOc1nc(N)nc2ccc(-c3ccc(F)cc3)nc12` [Example 4, 2-amino-4-(2-butoxyethoxy)-6-(4-fluorophenyl)pyrido(3,2-d)pyrimidine], the EC50 in the data set with HCV replicon was more than 1000 nM. The compound also gave a CC50 at 3 days in data set [1] of more than 20000 nM.
For `CCOCCOc1nc(N)nc2ccc(-c3ccc(F)cc3)nc12` [Example 24, 4-(2-ethoxy-ethoxy)-6-(4-fluoro-phenyl)-pyrido[3,2-d]pyrimidin-2-ylamine], the concentration for a half-maximal effect (EC50) in the data set on HCV replicon was less than 300 nM. In data set [1], this compound displayed a CC50 at 3 days of more than 20000 nM.
The like results for `Nc1nc(O[C@H]2CCOC2)c2nc(-c3ccc(F)cc3)ccc2n1` [Example 16, 2-amino-4-[3(S)-tetrahydrofuranyloxy]-6-(4-fluorophenyl)-pyrido(3,2-d)pyrimidine] were, in that order, less than 300 nM and more than 20000 nM.
`Nc1nc(OC2CCCCC2)c2nc(-c3ccc(F)cc3)ccc2n1` [Example 32, 2-amino-4-cyclohexyloxy-6-(4-fluorophenyl)-pyrido(3,2-d)pyrimidine] showed a melting point of 180 °C. The same compound displayed an EC50 in the data set on HCV replicon of 300 to 1000 nM. The same compound returned a CC50 at 3 days in data set [1] of less than 10000 nM.
Compound `Nc1nc(OCC2CCCC2)c2nc(-c3ccc(F)cc3)ccc2n1` [Example 10, 2-amino-4-(cyclopentylmethoxy)-6-(4-fluorophenyl)pyrido(3,2-d)pyrimidine] had an EC50 in the data set with HCV replicon of 300 to 1000 nM. The same compound showed a CC50 at 3 days in data set [1] of more than 20000 nM.
In the case of `CCOC(C)COc1nc(N)nc2ccc(-c3ccc(F)cc3)nc12` (stereo not drawn) [Example 5, 2-amino-4-(2-ethoxy-1-propoxy)-6-(4-fluorophenyl)pyrido(3,2-d)pyri-midine], the EC50 in the data set on HCV replicon was less than 300 nM. In data set [1], this compound displayed a CC50 at 3 days of more than 20000 nM.
The corresponding values for `CSCCOc1nc(N)nc2ccc(-c3ccc(F)cc3)nc12` [Example 8, 2-amino-4-[2-(methylthio)ethoxy]-6-(4-fluorophenyl)pyrido(3,2-d)pyrimidine] are less than 300 nM and more than 20000 nM.
In turn, `Nc1nc(OCC2CC2)c2nc(-c3ccc(F)cc3)ccc2n1` [Example 22, 4-cyclopropylmethoxy-6-(4-fluoro-phenyl)-pyrido[3,2-d]pyrimidin-2-ylamine] registered an EC50 with HCV replicon of less than 300 nM. The same compound returned a CC50 at 3 days in data set [1] of more than 20000 nM.
`Nc1nc(OC2CCC2)c2nc(-c3ccc(F)cc3)ccc2n1` [Example 9, 2-amino-4-(cyclobutoxy)-6-(4-fluorophenyl)pyrido(3,2-d)pyrimidine] had an EC50 in the data set with HCV replicon of less than 300 nM. For the same compound, in data set [1], the CC50 at 3 days was more than 20000 nM.
`CCC(CC)Oc1nc(N)nc2ccc(-c3ccc(F)cc3)nc12` [Example 20, 4-(1-ethyl-propoxy)-6-(4-fluoro-phenyl)-pyrido[3,2-d]pyrimidin-2-ylamine] displayed an EC50 in the data set with HCV replicon of less than 300 nM. The compound also gave a CC50 at 3 days in data set [1] of less than 10000 nM.
The corresponding values for `Nc1nc(OC2CCCC2)c2nc(-c3ccc(F)cc3)ccc2n1` [Example 11, 2-amino-4-(cyclopentoxy)-6-(4-fluorophenyl)pyrido(3,2-d)pyrimidine] are less than 300 nM and more than 20000 nM.
As to `COC[C@@H](C)Oc1nc(N)nc2ccc(-c3ccc(F)cc3)nc12` [Example 38, 2-amino-4-[(R)-1-methoxy-2-propoxy]-6-(4-fluorophenyl)-pyrido(3,2-d)pyrimidine], the EC50 with HCV replicon was less than 300 nM. Besides, in data set [1], the 50% cytotoxic concentration (CC50) at 3 days was in the range of 10000 to 20000 nM.
In turn, `Nc1nc(OCC2CCCO2)c2nc(-c3ccc(F)cc3)ccc2n1` (stereo not drawn) [Example 35, 2-amino-4-(tetrahydro-2-furanmethoxy)-6-(4-fluorophenyl)-pyrido(3,2-d)pyrimidine] returned a melting point of 193 °C. In the data set on HCV replicon, this compound registered an EC50 of 300 to 1000 nM. The compound also showed a CC50 at 3 days in data set [1] of 10000 to 20000 nM.
`Nc1nc(OCC(F)F)c2nc(-c3ccc(F)cc3)ccc2n1` [Example 7, 2-amino-4-(2,2-difluoroethoxy)-6-(4-fluorophenyl)pyrido(3,2-d)pyrimidine] had a 50% effective concentration (EC50) in the data set on HCV replicon of less than 300 nM. In data set [1], this compound gave a CC50 at 3 days of more than 20000 nM.
The like results for `C=CC(C)(C)Oc1nc(N)nc2ccc(-c3ccc(F)cc3)nc12` [Example 13, 2-amino-4-(2-methyl-3-buten-2-oxy)-6-(4-fluorophenyl)pyrido(3,2-d)pyrimidine] were, in that order, more than 1000 nM and more than 20000 nM.
In the data set with HCV replicon, `CCCOCCOc1nc(N)nc2ccc(-c3ccc(F)cc3)nc12` [Example 3, 2-amino-4-(2-propoxyethoxy)-6-(4-fluorophenyl)pyrido(3,2-d)pyrimidine] had an EC50 of 300 to 1000 nM. The compound further registered a CC50 at 3 days in data set [1] of more than 20000 nM.
